Laboratory results as given in patent publication US20260083722A1, “BIFUNCTIONAL DEGRADERS COMPRISING ELECTROPHILIC PROTACS THAT ENGAGE DCAF1 AND PHARMACEUTICAL COMPOSITIONS COMPRISING THE SAME” (THE SCRIPPS RESEARCH INSTITUTE, priority 2022, published 2026).

Assays:
[1] = target: T1, recombinant DCAF1-WT (a.a.'s 1046-1396) (Homo sapiens, UniProt Q9Y4B6); assay: gel-ABPP with recombinant purified DCAF1-WT doped into HEK293T cell proteome; assay type: binding
T1 construct: form of DCAF1 containing the WD40 domain (amino acids (a.a.'s) 1046-1396); made in house
Excerpt: FIG. 2 that azetidine acrylamides stereo- and site-selectively engage recombinant DCAF1_C1113. (A) Domain map of DCAF1 with the region used for recombinant protein studies marked in a bracket (a.a.'s 1046-1396) and C1113 highlighted in red. (B) Crystal structure of a DCAF1-Vpx complex (pdb: 5AJA). DCAF1 (a.a.'s 1046-1396) is shown in cyan, Vpx is shown in yellow, and C1113, which is located at the DCAF1-Vpx interface is shown in red. (C) Structures of alkyne-modified azetidine acrylamides MY-11A (5) and MY-11B (6). (D) Gel-ABPP showing the concentration-dependent reactivity of MY-11A and MY-11B (1 h) reactivity with recombinant, purified DCAF1-WT or the DCAF1-C1113A mutant (0.06 μg/μL of DCAF1 protein per sample) doped into HEK293T cell proteome (1 μg/μL). MY-11A/B labeling of proteins was visualized by CuAAC conjugation to an azide-rhodamine tag followed by SDS-PAGE and in-gel fluorescence scanning. Results are from a single experiment representative of two independent experiments. (E) Gel-ABPP showing the concentration-dependent effects of MY-1A and MY-1B on MY-11B reactivity with DCAF1-WT. Samples were treated with MY-1A/B for 2 h, followed by MY-11B (25 μM, 1 h) and analyzed as described in (D). Left, quantification of data presented as mean values±SEM from two independent experiments. Right, representative gel-ABPP results. (D, E) Lower images are Coomassie blue-stained gels corresponding to ABPP gels shown in upper images.
(A) Structures of candidate electrophilic PROTACs YT41R (7), YT41S (8), YT47R (9), and YT47S (10). (B) Gel-ABPP showing the concentration-dependent effects of YT41R and YT47R on MY-11B reactivity with DCAF1-WT protein (0.06 μg/μL of DCAF1 protein per sample) doped into HEK293T cell proteome (1 μg/μL). Also shown are the effects of YT41S and YT47S tested at a single concentration (100 μM). Samples were treated with heterobifunctional compounds for 2 h, followed by MY-11B (25 μM, 1 h) and analyzed as described in FIG. 2D. Left, representative gel-ABPP results. Lower image is Coomassie blue-stained gel corresponding to ABPP gel shown in upper image. Right, quantification of data presented as mean values±SEM from two independent experiments.
DCAF1 is a multi-domain substrate receptor for CRL4 ligases (FIG. 2A) that has diverse physiological and disease functions, including being co-opted by the HIV-2 virus to promote degradation of the antiviral host protein SAMHD1^27-28. […] We verified the stereo- and site-selective engagement of DCAF1_C1113 by azetidine acrylamides using alkynylated analogues of MY-1A and MY-1B (MY-11A (5) and MY-11B (6), respectively; FIG. 2C). For these experiments, we doped into HEK293T cell lysates a recombinantly expressed and purified form of DCAF1 containing the WD40 domain (amino acids (a.a.'s) 1046-1396), in complex with the CRL4 adaptor protein DDB1^31, and exposed these samples to varying concentrations of MY-11A or MY-11B. After 1 h, we assessed MY-11A and MY-11B engagement of DCAF1 by copper-catalyzed azide-alkyne cycloaddition (CuAAC)^32 with an azide-rhodamine reporter tag followed by SDS-PAGE and in-gel fluorescence scanning^33. […] We used gel-ABPP to quantify an in vitro target engagement value (TE50) of approximately 25 μM (95% C.I.=13-38 μM) for MY-1B labeling of DCAF1 (FIG. 2E, left).

DCAF1-C1113A mutant = target: T2, DCAF1-C1113A mutant (Homo sapiens, UniProt Q9Y4B6, C1113A); assay: gel-ABPP with recombinant DCAF1-C1113A mutant doped into HEK293T cell proteome; assay type: binding; conditions: 1 h
T2 construct: the region used for recombinant protein studies marked in a bracket (a.a.'s 1046-1396); made in house
Excerpt: FIG. 2 that azetidine acrylamides stereo- and site-selectively engage recombinant DCAF1_C1113. (A) Domain map of DCAF1 with the region used for recombinant protein studies marked in a bracket (a.a.'s 1046-1396) and C1113 highlighted in red. (B) Crystal structure of a DCAF1-Vpx complex (pdb: 5AJA). DCAF1 (a.a.'s 1046-1396) is shown in cyan, Vpx is shown in yellow, and C1113, which is located at the DCAF1-Vpx interface is shown in red. (C) Structures of alkyne-modified azetidine acrylamides MY-11A (5) and MY-11B (6). […] MY-11A/B labeling of proteins was visualized by CuAAC conjugation to an azide-rhodamine tag followed by SDS-PAGE and in-gel fluorescence scanning. […] Samples were treated with MY-1A/B for 2 h, followed by MY-11B (25 μM, 1 h) and analyzed as described in (D). Left, quantification of data presented as mean values±SEM from two independent experiments. […]
DCAF1 is a multi-domain substrate receptor for CRL4 ligases (FIG. 2A) that has diverse physiological and disease functions, including being co-opted by the HIV-2 virus to promote degradation of the antiviral host protein SAMHD1^27-28. […] After 1 h, we assessed MY-11A and MY-11B engagement of DCAF1 by copper-catalyzed azide-alkyne cycloaddition (CuAAC)^32 with an azide-rhodamine reporter tag followed by SDS-PAGE and in-gel fluorescence scanning^33. […]

HA-FKBP12 = target: T3, HA-FKBP12 (Homo sapiens, UniProt P62942); assay: HA-FKBP12 abundance by Western blotting in transfected HEK293T cells; assay type: cell-based; conditions: 5 μM, 1 h pre-treatment
T3 construct: expressed in transfected cells; host or cells: HEK293T
Excerpt: (A) Left, western blots showing concentration-dependent effects of YT47R (upper) and YT41R (lower) on FKBP12 abundance in HEK293T cells expressing HA-FBKP12 with or without co-expression of FLAG-DCAF1. Right, quantification of HA-FKBP12 abundance in the indicated experimental groups. (B) Left, western blots showing effects of YT47R versus YT47S (upper) and YT41R versus YT41S (lower) on FKBP12 abundance in HEK293T cells co-expressing HA-FBKP12 and FLAG-DCAF1. Right, quantification of HA-FKBP12 abundance in the indicated experimental groups. (C) Western blots showing effects of YT47R (left blots) and YT41R (right blots) on FKBP12 abundance in HEK293T cells co-expressing HA-FBKP12 and either FLAG-DCAF1-WT or FLAG-DCAF1-C1113A mutant. Quantification of HA-FKBP12 abundance in the indicated experimental groups is shown in the adjacent bar graphs. For (A-C), FKBP12 abundance was determined at 24 h post-treatment with compounds, and data are mean values±SEM for three independent experiments. Statistical significance was calculated with unpaired two-tailed Student's t-tests comparing YT41R/YT47R- and DMSO-treated cells. ***P<0.001, ****P<0.0001.
(A) Left, western blots showing effects of proteasome (MG132) and Neddylation (MLN4924) inhibitors (1 h pre-treatment) on YT47R- and YT41R-dependent degradation of FKBP12 in HEK293T cells co-expressing HA-FBKP12 and FLAG-DCAF1. FKBP12 abundance was determined at 24 h post-treatment with YT47R or YT41R. Right, quantification of HA-FKBP12 abundance in the indicated experimental groups. (B) Left, western blots showing effects of the FKBP12 ligand SLF (20 μM) or DCAF1 ligand MY-11B (1 h pre-treatment with 20 μM SLF or 5 μM MY-11B) on YT47R- and YT41R-dependent degradation of FKBP12 in HEK293T cells co-expressing HA-FBKP12 and FLAG-DCAF1. FKBP12 abundance was determined at 24 h post-treatment with YT47R or YT41R. Right, quantification of HA-FKBP12 abundance in the indicated experimental groups. (C) Left, western blots showing effects of MY-11A or MY-11B (5 μM, 1 h pre-treatment) on YT47R- and YT41R-dependent degradation of FKBP12 in HEK293T cells co-expressing HA-FBKP12 and FLAG-DCAF1. FKBP12 abundance was determined at 24 h post-treatment with YT47R or YT41R. Right, quantification of HA-FKBP12 abundance in the indicated experimental groups. For (A-C), data are mean values±SEM for three-five independent experiments. Statistical significance was calculated with unpaired two-tailed Student's t-tests comparing YT41R/YT47R- and DMSO-treated cells. ****P<0.0001.
Figure S3. Concentration-dependent degradation of FKBP12 by DCAF1-directed electrophilic PROTACs. Top, western blots showing concentration-dependent effects of YT47R and YT41R on FKBP12 abundance in HEK293T cells co-expressing HA-FBKP12 and FLAG-DCAF1. Data are mean values±SEM for four independent experiments. Statistical significance was calculated with unpaired two-tailed Student's t-tests comparing YT41R/YT47R- and DMSO-treated cells. *P<0.1, **P<0.01, ***P<0.001, ****P<0.0001.
Figure S4. Time-dependent degradation of FKBP12 by DCAF1-directed electrophilic PROTACs. Top, western blots showing time-dependent effects of YT47R and YT41R (2 μM each) on FKBP12 abundance in HEK293T cells co-expressing HA-FBKP12 and FLAG-DCAF1. Data are mean values±SEM for four independent experiments. Statistical significance was calculated with unpaired two-tailed Student's t-tests comparing YT41R/YT47R- and DMSO-treated cells. ****P<0.0001.
We next treated HEK293T cells co-transfected with FLAG epitope-tagged full length DCAF1 (a.a.'s 1-1507) and HA (hemagglutinin) epitope-tagged FKBP12 with a concentration range of YT41R or YT47R and, after 24 h, measured HA-FKBP12 abundance by Western blotting.

[2] = tested on: ternary complex of FKBP12 and DCAF1; assay: co-immunoprecipitation of DCAF1 with HA-FKBP12 in HEK293T cells (ternary complex); assay type: cell-based; conditions: FLAG-DCAF1-WT, 5 μM, 2 h, in the presence of MG132 (10 μM)
Procedure: (A) Left, western blots showing effects of YT47R and YT47S on the immunoprecipitation (IP) of FLAG-DCAF1-WT or FLAG-DCAF1-C1113A with HA-FKBP12 in HEK293T cells co-expressing these proteins. Cells were treated with YT47R or YT47S (5 μM) for 2 h in the presence of MG132 (10 μM) prior to lysis and IP with an anti-HA antibody and western blotting for the indicated proteins (DCAF1, FKBP12, and ubiquitinated protein). Right, bar graphs quantifying DCAF1 (top) and ubiquitination (Ub) (bottom) in the indicated IP groups. (B) Left, western blots showing effects of YT47R and YT47S on the IP of endogenous DCAF1 with HA-FKBP12 in HEK293T cells expressing HA-FKBP12. Cells were treated with YT47R or YT47S (5 μM) for 2 h in the presence of MG132 (10 μM) prior to lysis and IP with an anti-HA antibody and western blotting for the indicated proteins (DCAF1, FKBP12). Right, bar graph quantifying DCAF1 in the indicated IP groups. For (A, B), data are mean values±SEM for three independent experiments. Statistical significance was calculated with unpaired two-tailed Student's t-tests comparing YT41R/YT47R- and DMSO-treated cells. **P<0.01, ****P<0.0001. (C) MS-ABPP quantification of IA-DTB labeling of the indicated cysteines in DCAF1 from FLAG-DCAF1-WT-expressing HEK293T cells treated with the indicated concentrations of YT47R (3 h) relative to cells treated with DMSO. Data represent average values±SEM from four independent experiments. Statistical significance was calculated with unpaired two-tailed Student's t-tests comparing compound to DMSO treated cells. *P<0.1.
Finally, we investigated whether electrophilic PROTACs induce a stable ternary complex of FKBP12 with DCAF1 and promote FKBP12 ubiquitination. […] A ternary complex was not observed in cells expressing the DCAF1-C1113A mutant (FIG. 6A), supporting that YT47R induces this complex through site-specifically reacting with C1113. […] In considering possible reasons why this ternary complex formation with endogenous DCAF1 was insufficient to support the degradation of recombinantly expressed FKBP12 (FIG. 4A), we speculate that our current PROTACs (YT41R, YT47R) may require further improvements in cellular properties to enable robust targeted protein degradation mediated by physiological concentrations of DCAF1.

T1 sequence (Q9Y4B6 1046-1396): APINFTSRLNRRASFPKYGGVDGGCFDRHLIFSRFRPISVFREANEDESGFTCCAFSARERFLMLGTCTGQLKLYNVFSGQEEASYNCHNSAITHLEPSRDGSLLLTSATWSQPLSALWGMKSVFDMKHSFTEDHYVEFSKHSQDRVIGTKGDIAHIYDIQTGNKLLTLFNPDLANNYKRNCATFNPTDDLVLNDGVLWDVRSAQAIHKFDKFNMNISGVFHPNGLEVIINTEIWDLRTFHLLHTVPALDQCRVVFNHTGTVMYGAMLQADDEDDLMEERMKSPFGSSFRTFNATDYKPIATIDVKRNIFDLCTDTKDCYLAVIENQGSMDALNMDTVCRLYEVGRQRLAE
T1 sequence (Q16531 whole entry partner, the tested form may be a part): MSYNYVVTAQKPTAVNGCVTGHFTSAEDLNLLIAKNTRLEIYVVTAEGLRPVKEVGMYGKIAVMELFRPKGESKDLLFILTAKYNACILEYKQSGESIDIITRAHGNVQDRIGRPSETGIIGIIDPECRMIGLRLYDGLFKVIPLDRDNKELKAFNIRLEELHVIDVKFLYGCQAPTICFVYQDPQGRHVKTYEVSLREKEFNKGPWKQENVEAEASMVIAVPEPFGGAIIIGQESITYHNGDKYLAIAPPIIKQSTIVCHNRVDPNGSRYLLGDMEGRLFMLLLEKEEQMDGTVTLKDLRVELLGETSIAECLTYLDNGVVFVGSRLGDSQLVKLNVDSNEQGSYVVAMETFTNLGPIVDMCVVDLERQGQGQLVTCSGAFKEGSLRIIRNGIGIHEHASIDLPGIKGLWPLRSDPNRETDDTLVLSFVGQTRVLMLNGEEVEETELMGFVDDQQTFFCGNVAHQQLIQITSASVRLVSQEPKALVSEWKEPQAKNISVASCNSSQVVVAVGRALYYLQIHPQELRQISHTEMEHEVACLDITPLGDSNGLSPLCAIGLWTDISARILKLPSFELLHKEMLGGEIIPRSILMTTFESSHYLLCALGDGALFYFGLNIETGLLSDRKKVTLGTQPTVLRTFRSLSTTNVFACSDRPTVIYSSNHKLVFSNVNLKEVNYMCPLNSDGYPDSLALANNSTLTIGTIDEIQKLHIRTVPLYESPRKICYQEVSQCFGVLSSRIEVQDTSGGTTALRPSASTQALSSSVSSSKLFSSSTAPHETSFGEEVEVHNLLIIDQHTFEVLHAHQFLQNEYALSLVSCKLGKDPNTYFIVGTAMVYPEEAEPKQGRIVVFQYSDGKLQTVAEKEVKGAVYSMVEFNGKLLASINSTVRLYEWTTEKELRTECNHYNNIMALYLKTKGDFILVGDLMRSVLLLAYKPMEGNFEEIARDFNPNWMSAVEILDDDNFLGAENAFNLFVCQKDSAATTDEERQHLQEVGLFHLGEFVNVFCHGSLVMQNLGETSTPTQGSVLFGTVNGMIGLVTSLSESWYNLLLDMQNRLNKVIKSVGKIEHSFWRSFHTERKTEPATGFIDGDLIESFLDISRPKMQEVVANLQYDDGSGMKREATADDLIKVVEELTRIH
T2 sequence (Q9Y4B6 1046-1396 C1113A): as the sequence (Q9Y4B6 1046-1396) above, with C68A counted along it
T2 sequence (Q16531 whole entry partner): as the sequence (Q16531 whole entry partner, the tested form may be a part) above
T3 sequence (P62942 whole entry): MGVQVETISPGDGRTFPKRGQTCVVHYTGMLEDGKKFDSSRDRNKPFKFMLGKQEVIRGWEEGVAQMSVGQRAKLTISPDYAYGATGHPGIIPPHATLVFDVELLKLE

Compound	labeling of recombinant DCAF1 by alkyne probe ([1]; 1 h, DCAF1-WT, CuAAC azide-rhodamine, in-gel fluorescence)	labeling of DCAF1-C1113A mutant by alkyne probe (DCAF1-C1113A mutant)	effect on YT41R/YT47R-mediated degradation of HA-FKBP12 (HA-FKBP12)	inhibition of MY-11B probe reactivity with recombinant DCAF1 ([1]; 2 h, then MY-11B 25 μM 1 h, YT41S and YT47S at single concentration 100 μM)	ternary complex of FKBP12 and DCAF1 [2]
C#Cc1ccc([C@H]2CN(C(=O)C=C)[C@H]2C(=O)Nc2cccc3cccnc23)cc1 [MY-11B, (2R,3S)-1-acryloyl-3-(4-ethynylphenyl)-N-(88uinoline-8-yl) azetidine-2-carboxamide]	much greater concentration-dependent labeling	blocked by mutation of C1113 to alanine	blocked	–	–
C=CC(=O)N1C[C@@H](c2ccc(C(=O)NCCOCCOCCOCCNC(=O)COc3cccc([C@@H](CCc4ccc(OC)c(OC)c4)OC(=O)[C@@H]4CCCCN4C(=O)C(=O)C(C)(C)CC)c3)cc2)[C@H]1C(=O)Nc1cccc2cccnc12 [YT47S]	–	–	–	did not impair	not
